Test system: human fibrosarcoma HT1080 cells
Test: Velocity of matrix-embedded cells in 3D collagen I matrix (live-cell tracking)
Type: cell-based
Settings: for cell velocity: human fibrosarcoma cells embedded in a 3D matrix at LD (ρ=10) and HD (ρ=50), compared to cells exposed to fresh medium (0); for cell-density-dependent migration: matrix-embedded cells at low and high cell densities; for cell velocity / cell migration on addition of recombinant cytokine: HT1080 seeded at low density (10 cells/mm^3), combination at the precise concentrations found at 50 cells/mm^3, ratio 5:2
Method: HT1080 cells were embedded in 2mg/ml type I collagen gel as described previously by Fraley et al^20. Briefly, cell suspensions containing 5000 to 75,000 cells in 1:1 (v/v) ratio of cell culture media and reconstitution buffer were mixed with appropriate volume of soluble rat-tail collagen I (Corning Inc.) to obtain a final collagen I concentration of 2 mg/ml. A calculated amount of 1M NaOH was added quickly and the final solution was mixed well to bring the pH to ˜7. The cell suspensions was added to a 24-well coverslip-bottom cell-culture dish and immediately transferred to an incubator maintained at 36° C. to allow polymerization. Fresh medium was added 1 h before imaging. MDA MB 231 and U-87 cells were embedded in 1 mg/ml type I collagen matrix
Phase-contrast images of matrix-embedded cells were recorded 2 min apart for 16.5 h using a Cascade 1K CCD camera (Roper Scientific) mounted on a Nikon TE2000 microscope with a 10× objective lens. Single cells were tracked using Metamorph imaging software. A custom MATLAB program calculated the velocity for each cell using the x- and y-coordinates obtained from tracking data using the following equation: […]
Recombinant IL-6 and IL-8 (R&D systems) reconstituted in DPBS (Life technologies) were added to matrix embedded cells with a cell density of 10 cells/mm^3 and imaged as described above (See velocity and protrusion topology of matrix embedded cells). Matrix embedded cells with cell densities of 10 cells/mm^3 and 50 cells/mm^3 were exposed to specific IL-6 and IL-8 functional antibodies (Proteintech) at a concentration of 0.5 μg/mL. Matrix embedded cells with cell densities of 10 cells/mm^3 and 50 cells/mm^3 were exposed to Tocilizumab (Roche) and Reparixin (Dompe pharmaceuticals) STAT3 and WASF3 activity
Matrix embedded with cell densities of 10 cells/mm^3 and 50 cells/mm^3 were exposed to JAK2 inhibitor, AG-490 (Santa Cruz Biotechnology), STAT3 inhibitor, S31-201, (Santa Cruz Biotechnology) and ARP 2/3 complex inhibitor, CK 666, (Sigma-Aldrich) for 1 h before cells were imaged as described above. (See velocity and protrusion topology of matrix embedded cells)

## Tocilizumab: a recombinant humanized, anti-human IL-6 receptor monoclonal antibody currently used in the treatment of Rheumatoid Arthritis
  cell velocity: decreased cell velocity

## CC(C)Cc1ccc([C@@H](C)C(=O)NS(C)(=O)=O)cc1 [Reparixin, (2R)-2-[4-(2-methylpropyl)phenyl]-N-methylsulfonylpropanamide]
  cell velocity: decreased cell velocity

## Cc1[nH]c2ccccc2c1CCNC(=O)c1ccccc1F [CK666]
  cell velocity: Decreased cell velocity
  cell-density-dependent migration: prevented cell-density-dependent migration

## Cc1ccc(S(=O)(=O)OCC(=O)Nc2ccc(C(=O)O)c(O)c2)cc1 [S3I-201]
  cell velocity: Decreased cell velocity
  cell-density-dependent migration: prevented cell-density-dependent migration

## N#C/C(=C/c1ccc(O)c(O)c1)C(=O)NCc1ccccc1 [AG-490]
  cell velocity: Decreased cell velocity
  cell-density-dependent migration: prevented cell-density-dependent migration

## recombinant IL-6: human recombinant IL-6 (R&D systems)
  cell velocity / cell migration on addition of recombinant cytokine: do not increase cell velocity
Listed as IL-6
  cell velocity / cell migration on addition of recombinant cytokine: no effect on cell migration

## recombinant IL-8: human recombinant IL-8 (R&D systems)
  cell velocity / cell migration on addition of recombinant cytokine: do not increase cell velocity
Listed as IL-8
  cell velocity / cell migration on addition of recombinant cytokine: no effect on cell migration

Reference: patent publication US20170165363A1, “CANCER CELL MIGRATION INHIBITORS AND THEIR USE IN THERAPEUTIC TREATMENTS” (THE JOHNS HOPKINS UNIVERSITY, priority 2015, published 2017)
